What was measured:
[1] = biological target: T1, Metabotropic glutamate receptor 3 (Homo sapiens, UniProt Q14832)
Description: Agonist activity at human mGlu3 receptor expressed in HEK cells assessed as inhibition of forskolin-stimulated cAMP formation after 20 mins by HTRF assay

[2] = biological target: T1, Metabotropic glutamate receptor 3; test: biochemical
Description: Displacement of [3H]-LY459477 from recombinant human mGlu3 receptor expressed in HEK cell membranes after 90 mins by liquid scintillation counting

[3] = biological target: T2, Metabotropic glutamate receptor 2 (Homo sapiens, UniProt Q14416); test: Displacement of [3H]-LY459477 from recombinant human mGlu2 receptor expressed in HEK cell membranes after 90 mins by liquid scintillation counting
[4] = biological target: T2, Metabotropic glutamate receptor 2; test: Agonist activity at human mGlu2 receptor expressed in HEK cells assessed as inhibition of forskolin-stimulated cAMP formation after 20 mins by HTRF assay; format: functional, cell-based
[5] = biological target: T1, Metabotropic glutamate receptor 3; test: Antagonist activity at human mGlu3 receptor expressed in HEK cells assessed as reversal of DCG-4 inhibited forskolin-stimulated cAMP formation after 20 mins by HTRF assay; format: functional, cell-based
[6] = biological target: T2, Metabotropic glutamate receptor 2; test: Antagonist activity at human mGlu2 receptor expressed in HEK cells assessed as reversal of DCG-4 inhibited forskolin-stimulated cAMP formation after 20 mins by HTRF assay; format: functional, cell-based

T1 sequence (Q14832 whole entry): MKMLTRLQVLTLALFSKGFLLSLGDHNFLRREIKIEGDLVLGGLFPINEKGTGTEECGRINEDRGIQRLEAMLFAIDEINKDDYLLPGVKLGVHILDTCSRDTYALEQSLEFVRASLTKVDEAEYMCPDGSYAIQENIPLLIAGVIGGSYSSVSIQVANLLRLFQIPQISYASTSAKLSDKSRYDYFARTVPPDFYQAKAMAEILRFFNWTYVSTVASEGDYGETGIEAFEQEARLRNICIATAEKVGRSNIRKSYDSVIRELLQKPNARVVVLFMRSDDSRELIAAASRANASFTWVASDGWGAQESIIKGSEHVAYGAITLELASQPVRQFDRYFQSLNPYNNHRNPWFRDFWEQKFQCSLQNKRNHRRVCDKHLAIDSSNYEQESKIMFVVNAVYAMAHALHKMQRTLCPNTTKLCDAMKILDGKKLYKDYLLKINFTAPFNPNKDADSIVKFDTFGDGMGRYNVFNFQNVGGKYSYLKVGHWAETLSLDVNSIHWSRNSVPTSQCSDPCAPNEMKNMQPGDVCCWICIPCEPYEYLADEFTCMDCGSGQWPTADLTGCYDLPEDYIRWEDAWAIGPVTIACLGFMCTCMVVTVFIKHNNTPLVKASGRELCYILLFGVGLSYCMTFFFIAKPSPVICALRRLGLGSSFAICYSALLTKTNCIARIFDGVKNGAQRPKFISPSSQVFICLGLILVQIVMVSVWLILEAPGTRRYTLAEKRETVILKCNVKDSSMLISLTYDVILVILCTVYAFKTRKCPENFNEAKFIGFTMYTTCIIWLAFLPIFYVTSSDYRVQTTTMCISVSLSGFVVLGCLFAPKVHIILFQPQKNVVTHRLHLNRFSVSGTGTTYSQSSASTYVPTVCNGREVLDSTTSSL
T2 sequence (Q14416 whole entry): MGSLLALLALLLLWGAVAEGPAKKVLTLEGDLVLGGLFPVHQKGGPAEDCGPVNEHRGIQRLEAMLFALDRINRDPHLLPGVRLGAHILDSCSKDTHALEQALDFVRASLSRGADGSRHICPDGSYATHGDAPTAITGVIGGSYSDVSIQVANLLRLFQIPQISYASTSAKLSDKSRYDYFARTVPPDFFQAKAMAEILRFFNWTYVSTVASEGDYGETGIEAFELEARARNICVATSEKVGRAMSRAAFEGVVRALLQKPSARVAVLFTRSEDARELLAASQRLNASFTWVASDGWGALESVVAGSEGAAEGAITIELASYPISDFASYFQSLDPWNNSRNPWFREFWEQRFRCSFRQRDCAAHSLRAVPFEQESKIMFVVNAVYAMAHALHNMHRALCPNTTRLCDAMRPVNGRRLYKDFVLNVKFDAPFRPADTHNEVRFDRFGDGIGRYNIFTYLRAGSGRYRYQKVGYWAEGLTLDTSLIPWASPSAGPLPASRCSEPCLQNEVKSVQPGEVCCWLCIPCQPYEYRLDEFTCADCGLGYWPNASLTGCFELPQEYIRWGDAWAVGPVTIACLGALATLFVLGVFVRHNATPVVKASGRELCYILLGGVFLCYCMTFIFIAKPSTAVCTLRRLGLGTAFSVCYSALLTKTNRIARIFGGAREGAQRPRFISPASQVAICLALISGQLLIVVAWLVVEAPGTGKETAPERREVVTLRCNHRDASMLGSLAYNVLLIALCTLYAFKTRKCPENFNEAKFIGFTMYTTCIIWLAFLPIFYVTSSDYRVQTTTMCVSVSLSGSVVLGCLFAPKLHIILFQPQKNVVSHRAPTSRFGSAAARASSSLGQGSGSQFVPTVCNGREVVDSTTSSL

Structure (SMILES)	EC50 [1]	Ki [2]	Ki [3]	EC50 [4]	IC50 [5]	IC50 [6]
N[C@@]1(C(=O)O)C[C@H](NC(=O)c2ccc(F)cc2)[C@H]2[C@H](C(=O)O)[C@H]21	6.6 nM	4.34 nM	330 nM	19.1 nM	–	–
N[C@@]1(C(=O)O)C[C@H](NC(=O)c2cccc(Cl)c2)[C@H]2[C@H](C(=O)O)[C@H]21	0.82 nM	0.47 nM	85.3 nM	8.37 nM	–	–
N[C@@]1(C(=O)O)C[C@H](NC(=O)c2ccc(O)cc2)[C@H]2[C@H](C(=O)O)[C@H]21	2.12 nM	9.34 nM	54.7 nM	6.32 nM	–	–
N[C@@]1(C(=O)O)C[C@H](NC(=O)c2ccc(Cl)cc2)[C@H]2[C@H](C(=O)O)[C@H]21	5.15 nM	2.29 nM	137 nM	6.97 nM	–	–
N[C@@]1(C(=O)O)C[C@H](NC(=O)c2ccccc2F)[C@H]2[C@H](C(=O)O)[C@H]21	5.1 nM	5.79 nM	218 nM	17.1 nM	–	–
N[C@H]1C[C@@](N)(C(=O)O)[C@@H]2[C@@H](C(=O)O)[C@@H]21	–	284 nM	4410 nM	–	–	–
N[C@@]1(C(=O)O)C[C@H](NC(=O)c2ccccc2O)[C@H]2[C@H](C(=O)O)[C@H]21	0.17 nM	1.79 nM	58.2 nM	7.44 nM	–	–

Further compounds by falling Ki [2], results first:

EC50 [1]	Ki [2]	Ki [3]	EC50 [4]	IC50 [5]	IC50 [6]	Structure (SMILES)
356 nM	1070 nM	11200 nM	508 nM	–	–	N[C@@]1(C(=O)O)C[C@H](NCc2ccccc2)[C@H]2[C@H](C(=O)O)[C@H]21
> 25000 nM	757 nM	1520 nM	3390 nM	9990 nM	12000 nM	N[C@@]1(C(=O)O)C[C@H](NC(=O)C2CCCCC2)[C@H]2[C@H](C(=O)O)[C@H]21
> 25000 nM	281 nM	595 nM	893 nM	2050 nM	5540 nM	N[C@@]1(C(=O)O)C[C@H](NC(=O)CCc2ccccc2)[C@H]2[C@H](C(=O)O)[C@H]21
–	177 nM	898 nM	–	–	–	CC(=O)N[C@H]1C[C@@](N)(C(=O)O)[C@@H]2[C@@H](C(=O)O)[C@@H]21
4.96 nM	27.4 nM	391 nM	42.5 nM	–	–	N[C@@]1(C(=O)O)C[C@H](NC(=O)c2ccccc2Cl)[C@H]2[C@H](C(=O)O)[C@H]21
7.15 nM	23.2 nM	151 nM	26.5 nM	–	–	COc1ccccc1C(=O)N[C@H]1C[C@@](N)(C(=O)O)[C@@H]2[C@@H](C(=O)O)[C@@H]21
4.96 nM	6.75 nM	294 nM	19.8 nM	–	–	N[C@@]1(C(=O)O)C[C@H](NC(=O)c2ccccc2)[C@H]2[C@H](C(=O)O)[C@H]21
2.44 nM	4.56 nM	188 nM	16 nM	–	–	COc1ccc(C(=O)N[C@H]2C[C@@](N)(C(=O)O)[C@@H]3[C@@H](C(=O)O)[C@@H]32)cc1
0.71 nM	2.27 nM	31.5 nM	3.77 nM	–	–	N[C@@]1(C(=O)O)C[C@H](NC(=O)c2cccc(O)c2)[C@H]2[C@H](C(=O)O)[C@H]21
2 nM	2.11 nM	214 nM	18.1 nM	–	–	N[C@@]1(C(=O)O)C[C@H](NC(=O)c2cccc(F)c2)[C@H]2[C@H](C(=O)O)[C@H]21

From ChEMBL document CHEMBL4020826 (J Med Chem, 2018)
